Assay results as given in US9108930B2, “N1- and N2-carbamoyl-1,2,3-triazole serine hydrolase inhibitors and methods” (The Scripps Research Institute, priority 2011, dated 2015).
Entries after “also recorded” stand apart in the source; their conditions may differ.

How the values were obtained:
[1] = biological target: T1, DAGLA (Mus musculus, UniProt Q6WQJ1); assay: Activity against recombinant DAGLA; assay type: biochemical
T1 construct: Full-length cDNAs encoding serine hydrolases were purchased from Open Biosystems; V5; host or cells: HEK293T
T1 sequence (Q6WQJ1 whole entry): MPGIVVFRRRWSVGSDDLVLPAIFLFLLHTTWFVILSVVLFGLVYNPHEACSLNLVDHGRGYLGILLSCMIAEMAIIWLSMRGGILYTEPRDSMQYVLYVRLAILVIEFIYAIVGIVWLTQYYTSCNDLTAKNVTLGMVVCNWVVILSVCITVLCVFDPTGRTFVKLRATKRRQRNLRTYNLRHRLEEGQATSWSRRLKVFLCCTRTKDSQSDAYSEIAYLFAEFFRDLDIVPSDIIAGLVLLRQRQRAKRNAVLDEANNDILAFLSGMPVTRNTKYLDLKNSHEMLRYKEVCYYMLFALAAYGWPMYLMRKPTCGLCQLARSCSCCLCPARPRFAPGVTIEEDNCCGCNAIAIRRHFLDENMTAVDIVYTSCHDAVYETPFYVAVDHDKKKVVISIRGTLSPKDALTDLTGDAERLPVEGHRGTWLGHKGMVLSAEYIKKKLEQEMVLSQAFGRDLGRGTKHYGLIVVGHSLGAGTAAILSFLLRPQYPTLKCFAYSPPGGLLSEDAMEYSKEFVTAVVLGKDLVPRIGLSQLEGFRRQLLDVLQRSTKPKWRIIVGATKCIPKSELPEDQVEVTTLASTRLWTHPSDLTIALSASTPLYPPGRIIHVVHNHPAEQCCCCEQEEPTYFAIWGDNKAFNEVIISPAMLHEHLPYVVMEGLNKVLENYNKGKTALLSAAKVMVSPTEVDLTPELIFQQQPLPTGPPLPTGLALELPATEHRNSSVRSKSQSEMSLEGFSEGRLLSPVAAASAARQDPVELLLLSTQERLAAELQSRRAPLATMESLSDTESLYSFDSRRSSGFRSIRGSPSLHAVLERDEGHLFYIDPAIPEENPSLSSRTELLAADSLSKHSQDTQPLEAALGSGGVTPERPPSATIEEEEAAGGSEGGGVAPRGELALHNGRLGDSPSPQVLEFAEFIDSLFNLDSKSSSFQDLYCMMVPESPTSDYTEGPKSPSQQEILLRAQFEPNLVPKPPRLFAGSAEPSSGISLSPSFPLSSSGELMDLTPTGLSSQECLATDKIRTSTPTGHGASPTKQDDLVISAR

[2] = test system: serine hydrolases in mouse brain proteome; assay: Selectivity profile by competitive ABPP (mouse brain proteome), DAGL series; assay type: biochemical
[3] = biological target: T2, endogenous DAGLB (Mus musculus, UniProt Q91WC9); assay: HT01 labeling of endogenous DAGLB in mouse brain and peritoneal macrophage proteomes; assay type: biochemical; details: 2 μM pretreatment
T2 construct: from tissue; host or cells: mouse brain and peritoneal macrophages

[4] = test system: peritoneal macrophages; assay: Metabolomics of thioglycolate-elicited peritoneal macrophages from treated mice; assay type: in vivo, mouse; details: 5 mg/kg, 4 hours, i.p.
Experimental: Mice were treated with KT109, KT172 or KT195 (5 mg/kg, 4 hours, i.p.) to evaluate whether blockade of DAGLB in peritoneal macrophages would result in metabolic effects similar to those observed in Neuro2A cells. Thioglycolate-elicited peritoneal macrophages were harvested, and the cells were subjected to metabolomics studies. […] All the metabolic effects observed in pharmacological studies were recapitulated using Daglb^−/− mice, providing genetic evidence that the changes were indeed DAGLB-mediated.
Metabolites were quantified by either selected reaction monitoring (SRM) of each metabolite using an Agilent G6410B Triple-Quad instrument or untargeted metabolomic analysis (substrate assays) using an Agilent 1100 series LC-MSD SL instrument. […] For analysis of diacylglycerols (DAGs) a Luna C5 column (50 mm×4.60 mm with 5 μm diameter particles) from Phenomenex was used. Mobile phase A was made of 95:5 v/v H2O:MeOH, and mobile phase B was composed of 60:35:5 v/v/v i-PrOH:MeOH:H2O. Ammonium hydroxide (0.1%) and formic acid (0.1%) was included to assist in ion formation in negative and positive ionization modes, respectively. For analysis of DAGs, 5 mM ammonium formate was also used in addition to 0.1% formic acid to assist in positive ionization and NH4+ adduct formation. For metabolite measurements, cells were resuspended in 1 mL of a 1% NaCl solution and added to 3 mL of a 2:1 v/v CHCl3:MeOH doped with 1 nmol of the following internal standards: d5-2-arachidonoylglycerol (2-AG), d8-arachidonic acid (AA), and d8-1-stearoyl-2-arachidonoylglycerol (SAG). The mixture was vortexed and then centrifuged (1,400×g, 3 min). The organic layer was removed, CHCl3 was added until the final volume was again 4 ml, and the extraction was repeated. The combined organic extracts were dried under a stream of N2 and resolubilized in 2:1 v/v CHCl3:MeOH (120 μl). 30 μL of resolubilized lipids were injected for positive mode (MAGs and DAGs) and negative mode (free fatty acids and eicosanoids) measurements.
The following parameters (MS) were used to measure the indicated metabolites by SRM (precursor ion, product ion, collision energy in V, polarity): C20:4 MAG or 2-AG (379, 287, 8, positive), d5-2-AG (384, 287, 5, positive), C18:0/C20:4 DAG or SAG (662, 341, 15, positive), d8-SAG (671, 671, 0, positive), C18:1/C20:4 DAG (660, 341, 15, positive), C16:0/C20:4 DAG (634, 341, 15, positive), C14:0/C20:4 DAG (606, 341, 15, positive), arachidonic acid or AA (303, 303, 0, negative), d8-AA (311, 267, 5, negative), PGE2 (351, 271, 10, negative), and PGD2 (351, 271, 10, negative). MS analysis was performed with an electrospray ionization source with the following parameters: drying gas temperature=350° C., drying gas flow rate=11 L/min, and the nebulizer pressure=35 psi. Prostaglandin SRM parameters were based on previously reported methods and transitions. Metabolites targeted by SRM were quantified by measuring the area under the peak in comparison with the internal standards. For metabolites where isotopic internal standards were not used, external standard curves with the internal standard versus metabolite standard were generated. In DAGL substrate assays, formation of the hydrolysis product, 2-AG was followed by measuring the area under the peak for 2-AG in comparison to the 1-monopentadecanoin standard ion.

[5] = biological target: T3, DAGLB (Mus musculus, UniProt Q91WC9); assay: ABPP-SILAC in Neuro2A cells; details: about 4 hours; 25 nM KT172, 50 nM KT109
T3 sequence (Q91WC9 1-669): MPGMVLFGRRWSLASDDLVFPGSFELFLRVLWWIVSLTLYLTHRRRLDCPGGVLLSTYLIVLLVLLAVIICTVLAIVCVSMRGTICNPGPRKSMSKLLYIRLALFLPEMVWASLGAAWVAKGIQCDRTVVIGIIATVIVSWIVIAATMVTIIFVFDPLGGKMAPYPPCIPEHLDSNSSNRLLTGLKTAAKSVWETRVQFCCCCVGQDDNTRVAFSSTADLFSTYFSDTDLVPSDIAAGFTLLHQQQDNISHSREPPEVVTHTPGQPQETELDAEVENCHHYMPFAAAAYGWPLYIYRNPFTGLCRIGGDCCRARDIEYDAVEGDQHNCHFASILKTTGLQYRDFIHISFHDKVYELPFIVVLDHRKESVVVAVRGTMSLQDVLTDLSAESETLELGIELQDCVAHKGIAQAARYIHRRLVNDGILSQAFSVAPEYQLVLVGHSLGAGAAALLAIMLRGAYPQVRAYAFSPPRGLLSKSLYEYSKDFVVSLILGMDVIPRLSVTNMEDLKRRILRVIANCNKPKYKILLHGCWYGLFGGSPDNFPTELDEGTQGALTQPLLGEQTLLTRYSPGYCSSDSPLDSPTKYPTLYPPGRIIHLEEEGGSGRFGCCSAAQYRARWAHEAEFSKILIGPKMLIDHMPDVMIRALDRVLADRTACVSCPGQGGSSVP

[6] = biological target: T3, DAGLB; assay: ABPP-MudPIT of peritoneal macrophages from treated mice; details: in vivo
[7] = test system: serine hydrolases in the peritoneal macrophage proteome; assay: ABPP-MudPIT of peritoneal macrophages from treated mice, off-targets; details: mouse, in vivo
[8] = biological target: T3, DAGLB; assay: In situ inhibition in Neuro2A cells, competitive ABPP with HT-01; assay type: cell-based; set-up: from tissue; host or cells: thioglycolate-elicited peritoneal macrophages of treated mice; details: 4 hours
Experimental: For gel-based competitive ABPP studies, proteomes from cells treated in situ with inhibitor for 4 h at 37° C. at the indicated concentrations (n=3) were labeled with HT-01 (1 μM) for 30 min at 37° C. After quenching, SDS-PAGE, and in-gel visualization, the percentage of enzyme activity remaining was determined by measuring the integrated optical intensity of the bands using IMAGER® software. For LC-MS substrate assays, the percentage of enzyme activity remaining was determined by comparing the specific activity (amount of 2-AG formed per min per mg of proteome) of inhibitor with DMSO-treated samples. The IC50 values were determined from a dose-response curve generated using GraphPad PRISM® software.

[9] = biological target: T3, DAGLB; assay: In vivo DAGLB inactivation in peritoneal macrophages, gel-based competitive ABPP using HT01; set-up: from tissue; host or cells: thioglycolate-elicited peritoneal macrophages of treated mice; details: i.p.
[10] = biological target: T3, DAGLB; assay: Gel-based ABPP assay against recombinant DAGLB (HEK293T-DAGLB lysates); assay type: biochemical; set-up: Full-length cDNAs encoding serine hydrolases were purchased from Open Biosystems; V5; host or cells: HEK293T; details: recombinant

SMILES: COc1ccccc1-c1ccc(-c2cn(C(=O)N3CCCCC3Cc3ccccc3)nn2)cc1 (centres unmarked) [KT172]
- activity against DAGLA [1]: more potent against the alpha isoform in comparison with KT109
- off-target activity / selectivity against other serine hydrolases [2]: mild activity against this off-target enzyme at higher concentrations; also recorded: slightly increased activity against MGLL
- reduction of HT01 probe labeling of the DAGLB band [3]: > 80%
- change in 2-AG [4]: Dramatic decreases in 2-AG
- change in SAG [4]: significant increases in SAG
- change in cellular AA, PGE2 and PGD2 [4]: significant decreases in cellular AA levels and a corresponding reduction in PGE2 and PGD2
- DAGLB activity blocked [5]: approximately 90%
- DAGLB inhibition by spectral counting [6]: confirmed inhibition of DAGLB
- off-target activities [7]: carboxylesterases (Ces3 and Ces2g)
- IC50 [8]: 11 nM
- time to complete inhibition of DAGLB ([9]; 5 mg/kg): within the first hour
- duration / time-course of DAGLB inhibition ([9]; 5 mg/kg, about 1 to 16 hours): shorter compared with KT109
- dose (as low as) giving complete inactivation of DAGLB in peritoneal macrophages ([9]; about 4 hours, doses about 10 to about 0.1 mg/kg): 0.5 mg/kg
- activity against DAGLB [10]: maintaining potency against DAGLB
